# Experimental data taken from patent US12012411B2, “Viral replication inhibitors” (Katholieke Universiteit Leuven, priority 2011, dated 2024).
# System: DENV-2 NGC
# Assay: Antiviral activity against DENV-2 NGC in Vero-B cells (viral RNA load by RT-qPCR)
# Format: cell-based, Dengue virus
# Conditions: DENV-2 in Vero-B cells; inhibition of viral RNA replication by 50% (Table 3)
row,SMILES,EC50
1,"COc1cncc(NC(C(=O)c2c[nH]c3ccccc23)c2ccccc2)c1 (single isomer, unassigned) [CPD-300]",1290 nM
2,"COc1cccc(NC(C(=O)c2c[nH]c3ccccc23)c2cc3ccccn3n2)c1 (single isomer, unassigned) [CPD-324]",10 nM
3,"COc1cccc(NC(C(=O)c2c[nH]c3ccccc23)c2cc3ccccn3n2)c1 (single isomer, unassigned) [CPD-325]",90 nM
4,"COc1cc(NC(C(=O)c2c[nH]c3ccccc23)c2ccccc2)cc(OC)c1 (single isomer, unassigned) [CPD-326]",1 nM
5,"COc1cc(NC(C(=O)c2c[nH]c3ccccc23)c2ccccc2)cc(OC)c1 (single isomer, unassigned) [CPD-327]",350 nM

# Same assay, conditions: Dengue virus, DENV2, Vero B, DENV-2 in Vero-B cells; inhibition of viral RNA replication by 50% (Table 3)
row,SMILES,EC50
1,COc1cccc(NC(C(=O)c2c[nH]c3ccccc23)c2ccsc2)c1 (stereo not drawn) [CPD-027],130 nM
2,COc1cccc(NC(C(=O)c2c[nH]c3ccccc23)c2ccc(C#N)cc2)c1 (stereo not drawn) [CPD-036],40 nM
3,COc1cccc(NC(C(=O)c2c[nH]c3cccc(Cl)c23)c2ccccc2)c1 (stereo not drawn) [CPD-053],20 nM
4,COc1cccc(NC(C(=O)c2c[nH]c3cc(OC)ccc23)c2ccccc2)c1 (stereo not drawn) [CPD-077],40 nM

# System: uninfected quiescent Vero-B cells
# Assay: Cytotoxic assay in uninfected quiescent Vero-B cells (MTS/PMS)
# Conditions: 4 days (Table 3)
row,SMILES,CC50
1,"COc1cncc(NC(C(=O)c2c[nH]c3ccccc23)c2ccccc2)c1 (single isomer, unassigned) [CPD-300]",50000 nM
2,"COc1cccc(NC(C(=O)c2c[nH]c3ccccc23)c2cc3ccccn3n2)c1 (single isomer, unassigned) [CPD-324]",30000 nM
3,"COc1cccc(NC(C(=O)c2c[nH]c3ccccc23)c2cc3ccccn3n2)c1 (single isomer, unassigned) [CPD-325]",68000 nM
4,"COc1cc(NC(C(=O)c2c[nH]c3ccccc23)c2ccccc2)cc(OC)c1 (single isomer, unassigned) [CPD-326]",13000 nM
5,"COc1cc(NC(C(=O)c2c[nH]c3ccccc23)c2ccccc2)cc(OC)c1 (single isomer, unassigned) [CPD-327]",11000 nM
6,COc1cccc(NC(C(=O)c2c[nH]c3ccccc23)c2ccsc2)c1 (stereo not drawn) [CPD-027],15000 nM
7,COc1cccc(NC(C(=O)c2c[nH]c3ccccc23)c2ccc(C#N)cc2)c1 (stereo not drawn) [CPD-036],14000 nM
8,COc1cccc(NC(C(=O)c2c[nH]c3cccc(Cl)c23)c2ccccc2)c1 (stereo not drawn) [CPD-053],18000 nM
9,COc1cccc(NC(C(=O)c2c[nH]c3cc(OC)ccc23)c2ccccc2)c1 (stereo not drawn) [CPD-077],13000 nM

# System: DENV-4 strain Dak HD 34 460
# Assay: Antiviral activity against DENV-4 in Vero-B cells (viral RNA load by RT-qPCR)
# Format: cell-based, Dengue virus
# Conditions: not given
row,SMILES,EC50
1,"COc1cncc(NC(C(=O)c2c[nH]c3ccccc23)c2ccccc2)c1 (single isomer, unassigned) [CPD-300]",4130 nM
2,"COc1cccc(NC(C(=O)c2c[nH]c3ccccc23)c2cc3ccccn3n2)c1 (single isomer, unassigned) [CPD-325]",7160 nM
3,"COc1cc(NC(C(=O)c2c[nH]c3ccccc23)c2ccccc2)cc(OC)c1 (single isomer, unassigned) [CPD-327]",2250 nM

# Same assay, conditions: Dengue virus, DENV4, Vero B
row,SMILES,EC50
1,"COc1cccc(NC(C(=O)c2c[nH]c3ccccc23)c2cc3ccccn3n2)c1 (single isomer, unassigned) [CPD-324]",5320 nM
2,"COc1cc(NC(C(=O)c2c[nH]c3ccccc23)c2ccccc2)cc(OC)c1 (single isomer, unassigned) [CPD-326]",1890 nM
3,COc1cccc(NC(C(=O)c2c[nH]c3ccccc23)c2ccsc2)c1 (stereo not drawn) [CPD-027],3700 nM
4,COc1cccc(NC(C(=O)c2c[nH]c3ccccc23)c2ccc(C#N)cc2)c1 (stereo not drawn) [CPD-036],5850 nM
5,COc1cccc(NC(C(=O)c2c[nH]c3cccc(Cl)c23)c2ccccc2)c1 (stereo not drawn) [CPD-053],7110 nM
6,COc1cccc(NC(C(=O)c2c[nH]c3cc(OC)ccc23)c2ccccc2)c1 (stereo not drawn) [CPD-077],4270 nM

# System: DENV-3 strain H87 prototype
# Assay: Antiviral activity against DENV-3 in Vero-B cells (viral RNA load by RT-qPCR)
# Format: cell-based, Dengue virus
# Conditions: not given
row,SMILES,EC50
1,"COc1cncc(NC(C(=O)c2c[nH]c3ccccc23)c2ccccc2)c1 (single isomer, unassigned) [CPD-300]",21100 nM
2,"COc1cccc(NC(C(=O)c2c[nH]c3ccccc23)c2cc3ccccn3n2)c1 (single isomer, unassigned) [CPD-324]",190 nM
3,"COc1cccc(NC(C(=O)c2c[nH]c3ccccc23)c2cc3ccccn3n2)c1 (single isomer, unassigned) [CPD-325]",1840 nM
4,"COc1cc(NC(C(=O)c2c[nH]c3ccccc23)c2ccccc2)cc(OC)c1 (single isomer, unassigned) [CPD-326]",90 nM
5,"COc1cc(NC(C(=O)c2c[nH]c3ccccc23)c2ccccc2)cc(OC)c1 (single isomer, unassigned) [CPD-327]",4610 nM

# Same assay, conditions: Dengue virus, DENV3, Vero B
row,SMILES,EC50
1,COc1cccc(NC(C(=O)c2c[nH]c3ccccc23)c2ccsc2)c1 (stereo not drawn) [CPD-027],9900 nM
2,COc1cccc(NC(C(=O)c2c[nH]c3ccccc23)c2ccc(C#N)cc2)c1 (stereo not drawn) [CPD-036],3420 nM
3,COc1cccc(NC(C(=O)c2c[nH]c3cccc(Cl)c23)c2ccccc2)c1 (stereo not drawn) [CPD-053],11200 nM
4,COc1cccc(NC(C(=O)c2c[nH]c3cc(OC)ccc23)c2ccccc2)c1 (stereo not drawn) [CPD-077],2070 nM

# System: DENV-1 Djibouti strain D1/H/IMTSSA/98/606
# Assay: Antiviral activity against DENV-1 in Vero-B cells (viral RNA load by RT-qPCR)
# Format: cell-based, Dengue virus
# Conditions: not given
row,SMILES,EC50
1,"COc1cncc(NC(C(=O)c2c[nH]c3ccccc23)c2ccccc2)c1 (single isomer, unassigned) [CPD-300]",5290 nM
2,"COc1cccc(NC(C(=O)c2c[nH]c3ccccc23)c2cc3ccccn3n2)c1 (single isomer, unassigned) [CPD-324]",270 nM
3,"COc1cccc(NC(C(=O)c2c[nH]c3ccccc23)c2cc3ccccn3n2)c1 (single isomer, unassigned) [CPD-325]",870 nM
4,"COc1cc(NC(C(=O)c2c[nH]c3ccccc23)c2ccccc2)cc(OC)c1 (single isomer, unassigned) [CPD-326]",50 nM
5,"COc1cc(NC(C(=O)c2c[nH]c3ccccc23)c2ccccc2)cc(OC)c1 (single isomer, unassigned) [CPD-327]",1420 nM

# Same assay, conditions: Dengue virus, DENV1, Vero B
row,SMILES,EC50
1,COc1cccc(NC(C(=O)c2c[nH]c3ccccc23)c2ccsc2)c1 (stereo not drawn) [CPD-027],2100 nM
2,COc1cccc(NC(C(=O)c2c[nH]c3ccccc23)c2ccc(C#N)cc2)c1 (stereo not drawn) [CPD-036],2430 nM
3,COc1cccc(NC(C(=O)c2c[nH]c3cccc(Cl)c23)c2ccccc2)c1 (stereo not drawn) [CPD-053],1640 nM
4,COc1cccc(NC(C(=O)c2c[nH]c3cc(OC)ccc23)c2ccccc2)c1 (stereo not drawn) [CPD-077],1420 nM
